What all share (type): cell-based
In one test the test system is RSV strain A2. Nature of the test: RSV HEp-2 EC50 (infectious cytopathic cell protection assay). The note with it: read-out: RSV HEp-2 EC50. The procedure: Antiviral activity against RSV is determined using an infectious cytopathic cell protection assay in HEp-2 cells. In this assay, compounds inhibiting viral infection and/or replication produce a cytoprotective effect against the virus-induced cell killing that can be quantified using a cell viability reagent. The techniques used here are novel adaptations of methods described in published literature (Chapman et al., Antimicrob Agents Chemother. 2007, 51(9):3346-53.)
HEp-2 cells are obtained from ATCC (Manassas, VI) and maintained in MEM media supplemented with 10% fetal bovine serum and penicillin/streptomycin. Cells are passaged twice a week and kept at subconfluent stage. Commercial stock of RSV strain A2 (Advanced Biotechnologies, Columbia, MD) is titered before compound testing to determine the appropriate dilution of the virus stock that generates desirable cytopathic effect in HEp-2 cells.
For antiviral tests, HEp-2 cells are grown in large cell culture flasks to near confluency but not fully so. The compounds to be tested are prediluted in DMSO in 384-well compound dilution plates, either in an 8 or 40 sample per plate standardized dose response format. 3-fold serial dilution increments of each test compound are prepared in the plates and test samples are transferred via acoustic transfer apparatus (Echo, Labcyte) at 100 nL per well into cell culture assay 384-well plates. Each compound dilution is transferred in single or quadruplicate samples into dry assay plates, which are stored until assay is ready to go. The positive and negative controls are laid out in opposite on ends of the plate in vertical blocks (1 column).
Subsequently, an infectious mixture is prepared using an appropriate dilution of virus stock previously determined by titration with cells at a density of 50,000/ml and 20 µL/well is added to test plates w/compounds via automation (uFlow, Biotek). Each plate includes negative and positive controls (16 replicates each) to create 0% and 100% virus inhibition standards, respectively. Following the infection with RSV, testing plates are incubated for 4 days in a 37° C. cell culture incubator. After the incubation, a cell viability reagent, Cell TiterGlo (Promega, Madison, WI) is added to the assay plates, which are incubated briefly, and a luminescent readout is measured (Envision, Perkin Elmer) in all the assay plates. The RSV-induced cytopathic effect, percentage inhibition, is determined from the levels of remaining cell viability. […] Various potent anti-RSV tool compounds are used as positive controls for antiviral activity.

The test system of another test is RSV A2. Nature of the test: RSV NHBE EC50 (RSV A2 antiviral assay in normal human bronchial epithelial cells). The note with it: read-out: RSV NHBE EC50. How it is done: Normal human bronchial epithelial (NHBE) cells were purchased from Lonza (Walkersville, MD, Cat #CC-2540) and cultured in Bronchial Epithelial Growth Media (BEGM) (Lonza, Walkersville, MD, Cat #CC-3170). The cells were passaged 1-2 times per week to maintain <80% confluency. The NHBE cells were discarded after 6 passages in culture.
To conduct the RSV A2 antiviral assay, NHBE cells were plated in 96-well plates at a density of 7,500 cells per well in BEGM and allowed to attach overnight at 37° C. Following attachment, 100 μL of cell culture media was removed and 3-fold serially diluted compound was added using a Hewlett-Packard D300 Digital Dispenser. The final concentration of DMSO was normalized to 0.05%. Following compound addition, the NHBE cells were infected by the addition of 100 μL of RSV A2 at a titer of 1×10^4.5 tissue culture infectious doses/mL in BEGM and then incubated at 37° C. for 4 days. […] The mixtures were incubated for 10 minutes at 25° C., and the luminescence signal was quantified on an Envision luminescence plate reader.

In a further test the test system is HRV16. Nature of the test: HRV16 HELA EC50 (cytopathic effect in H1-HeLa cells). The procedure: H1-HeLa cells, cultured in complete DMEM medium containing 10% heat-inactivated FBS and 1% Penicillin/Streptomycin, were seeded in 96 well plates at 3000 cells/well one day prior to compound dosing and infection. The antiviral activity of each compound was measured in triplicate. Compounds were added directly to the cell cultures in serial 3-fold dilutions using the HP300 digital dispenser (Hewlett Packard, Palo Alto, CA) immediately prior to infection. The plates were transferred to BSL-2 containment and the appropriate dilution of virus stock, previously determined by titration and prepared in cell culture media, was added to test plates containing cells and serially diluted compounds. Each plate included 6 wells of infected untreated cells and 6 wells of uninfected cells that served as 0% and 100% virus inhibition control, respectively. Following the infection, test plates were incubated for 96 h in a tissue culture incubator set to 33° C./5% CO2. Following incubation, the H1-HeLa cells were removed from incubation and allowed to equilibrate to 25° C. Cell viability was determined by removing 100 μL of culture medium and adding 100 μL of Cell-Titer Glo viability reagent. The mixtures were incubated on a shaker for 10 minutes at 25° C., and the luminescence signal was quantified on an Envision luminescence plate reader.

For a further test, the system named is DENV2 replicon. In words: DENV-2 Huh-7 Rep EC50 (replicon luminescence). The note with it: read-out: DENV-2 Huh-7 Rep EC50. The procedure:
In 384 well plates (Greiner, Cat #781091), compounds were acoustically transferred at 200 nl per well in a 8 compound (4 replicates) or 40 compound dose response format (3 replicates). For all plates tested, Balapiravir, GS-5734 and NITD008 were included as positive inhibition controls alongside 0% inhibition, DMSO-only negative control wells. Following compound addition, Huh-7 cells containing the DENV2 replicon construct were harvested following standard cell culture procedures and were adjusted to a concentration of 1.25E5 cells/mL in cell culture media composed of cDMEM without genticin. 40 μL of the cell stock was then added to each well for a final cell density of 5,000 cells/well. Cell and compound mixtures were incubated at 37° C./5% CO2 for 48 hours. Prior to harvesting cells, EnduRen Live Cell Substrate (Promega, Cat #E6481) was prepared by suspending 3.4 mg into 100 uL of DMSO to generate a 60 mM stock solution. The stock solution was then diluted 1:200 in pre-warmed cDMEM and 10 uL of this diluted solution was added to each well of the 384 well plates. Plates were then centrifuged at 500 rpm briefly and were placed on a plate shaker for 2 min. Following mixing, plates were incubated at […] for 1.5 hours prior to measuring luminescence on an Envision luminometer.
For orientation: A replicon is a self-replicating genome or part of one, used to study replication in cells.

[1] abbreviates: H1-HeLa cells, 96 h, 33° C.; read-out: HRV16 HELA EC50.
[2] abbreviates: human respiratory syncytial virus, NHBE, 96 h, NHBE cells, RSV A2, 4 days.
The mark [3] stands for this setting: Dengue virus, DENV2, Huh-7, 48 h, Huh-7 replicon cells, 48 hours.
Where [4] appears, read: human respiratory syncytial virus, HEp-2, 96 h, HEp-2 cells, RSV A2, 4 days.

Where two headings read alike, the source gives them in different places.

Usually EC50 stands for the concentration that produces a half-maximal response. Turning to `C[C@@H](NP(=O)(OC[C@@]1(C#N)O[C@@H](c2ccc3c(N)ncnn23)[C@H](O)[C@@H]1O)Oc1ccccc1)C(=O)O[C@H]1CC[C@H](C(F)(F)F)CC1` (single isomer, unassigned) [Example 196], the EC50 came out at 4.13 µM with RSV strain A2 (HEp-2 cells, RSV A2, 4 days); 1.32 µM in the test on RSV A2 (NHBE cells, RSV A2, 4 days); 7.54 µM with HRV16 (setting [1]).
Take `C[C@H](NP(=O)(OC[C@@]1(C#N)O[C@@H](c2ccc3c(N)ncnn23)[C@H](O)[C@@H]1O)Oc1ccccc1)C(=O)OC1CCCCCCC1` (single isomer, unassigned) [Example 172]: the EC50 was 1.45 µM in the test with RSV strain A2 (HEp-2 cells, RSV A2, 4 days); over 0.516 µM in the test on RSV A2 (setting [2]); 31.4 µM in the test with DENV2 replicon (setting [3]).
In the case of `COC(=O)[C@H](C)NP(=O)(OC[C@@]1(C#N)O[C@@H](c2ccc3c(N)ncnn23)[C@H](O)[C@@H]1O)Oc1cccnc1` (stereo partly drawn) [Example 249, methyl ((((2R,3S,4R,5S)-5-(4-aminopyrrolo[2,1-f][1,2,4]triazin-7-yl)-2-cyano-3,4-dihydroxytetrahydrofuran-2-yl)methoxy)(pyridin-3-yloxy)phosphoryl)-L-alaninate], the EC50 in the test with RSV A2 (setting [2]) was at least 5 µM; with DENV2 replicon (setting [3]), over 50 µM.
With `C[C@H](NP(=O)(OC[C@@]1(C#N)O[C@@H](c2ccc3c(N)ncnn23)[C@H](O)[C@@H]1O)Oc1ccccc1)C(=O)OC1CCC(F)(F)CC1` (single isomer, unassigned) [Example 175], the EC50 in the test with RSV strain A2 (HEp-2 cells, RSV A2, 4 days) is 0.801 µM; with RSV A2 (NHBE cells, RSV A2, 4 days) it was 0.539 µM; in the test with DENV2 replicon (Huh-7 replicon cells, 48 hours) it was over 100 µM.
Take `C[C@H](NP(=O)(OC[C@@]1(C#N)O[C@@H](c2ccc3c(N)ncnn23)[C@H](O)[C@@H]1O)Oc1ccccc1)C(=O)OCC1CCCCC1` (stereo partly drawn) [Example 246, cyclohexylmethyl ((((2R,3S,4R,5S)-5-(4-aminopyrrolo[2,1-f][1,2,4]triazin-7-yl)-2-cyano-3,4-dihydroxytetrahydrofuran-2-yl)methoxy)(phenoxy)phosphoryl)-L-alaninate]: the EC50 in the test on RSV strain A2 (setting [4]) is 0.035 µM; with RSV A2 (setting [2]) it was 0.041 µM; with DENV2 replicon (setting [3]) it was 5.11 µM.
As for `C[C@H](NP(=O)(OC[C@@]1(C#N)O[C@@H](c2ccc3c(N)ncnn23)[C@H](O)[C@@H]1O)Oc1ccccc1)C(=O)OCC12CCN(CC1)CC2` (stereo partly drawn) [Example 213, quinuclidin-4-ylmethyl ((((2R,3S,4R,5S)-5-(4-aminopyrrolo[2,1-f][1,2,4]triazin-7-yl)-2-cyano-3,4-dihydroxytetrahydrofuran-2-yl)methoxy)(phenoxy)phosphoryl)-L-alaninate], the EC50 was 3.84 µM with RSV strain A2 (setting [4]), over 5 µM with RSV A2 (setting [2]) and over 100 µM in the test with DENV2 replicon (setting [3]).
Regarding `CCC(CC)COC(=O)[C@H](C)NP(=O)(N[C@@H](C)C(=O)OC1CCCCC1)OC[C@@]1(C#N)O[C@@H](c2ccc3c(N)ncnn23)[C@H](O)[C@@H]1O` (single isomer, unassigned) [Example 228], the EC50 in the test with RSV A2 (NHBE cells, RSV A2, 4 days) was 2.04 µM; in the test with HRV16 (setting [1]), 4.71 µM.
On to `CCC(CC)COC(=O)[C@H](C)NP(=O)(N[C@@H](C)C(=O)OC1CCCCC1)OC[C@@]1(C#N)O[C@@H](c2ccc3c(N)ncnn23)[C@H](O)[C@@H]1O` (mixture of isomers) [Example 30, cyclohexyl ((((2R,3S,4R,5S)-5-(4-aminopyrrolo[2,1-f][1,2,4]triazin-7-yl)-2-cyano-3,4-dihydroxytetrahydrofuran-2-yl)methoxy)(((S)-1-(2-ethylbutoxy)-1-oxopropan-2-yl)amino)phosphoryl)-L-alaninate], for which the EC50 is 0.844 µM in the test on RSV strain A2 (human respiratory syncytial virus, 96 h, HEp-2 cells, RSV A2, 4 days); 0.044 µM with RSV A2 (human respiratory syncytial virus, 96 h, NHBE cells, RSV A2, 4 days); 60.7 µM in the test with DENV2 replicon (Dengue virus, DENV2, Huh-7, 48 h).
With `C[C@H](NP(=O)(OC[C@@]1(C#N)O[C@@H](c2ccc3c(N)ncnn23)[C@H](O)[C@@H]1O)Oc1ccccc1)C(=O)O[C@@H]1CCOC1` (mixture of isomers) [Example 68, (R)-Tetrahydrofuran-3-yl ((((2R,3S,4R,5S)-5-(4-aminopyrrolo[2,1-f][1,2,4]triazin-7-yl)-2-cyano-3,4-dihydroxytetrahydrofuran-2-yl)methoxy)(phenoxy)phosphoryl)-L-alaninate], the EC50 was determined as 0.247 µM in the test on RSV strain A2 (setting [4]) and 4.72 µM in the test on HRV16 (96 h, H1-HeLa cells, 33° C., read-out: HRV16 HELA EC50).
Consider `CC1CCC(OC(=O)C(C)NP(=O)(OCC2(C#N)OC(c3ccc4c(N)ncnn34)C(O)C2O)Oc2ccccc2)CC1` (stereo not shown) [Example 144], for which the EC50 in the test with RSV strain A2 (HEp-2 cells, RSV A2, 4 days) came to 0.614 µM; in the test with RSV A2 (NHBE cells, RSV A2, 4 days) it was 0.065 µM.
In the case of `CC(C)OC(=O)[C@H](C)NP(=O)(OC[C@@]1(C#N)O[C@@H](c2ccc3c(N)ncnn23)[C@H](O)[C@@H]1O)Oc1ccc(C(=O)N(C)C)cc1` (stereo partly drawn) [Example 43, Isopropyl ((((2R,3S,4R,5S)-5-(4-aminopyrrolo[2,1-f][1,2,4]triazin-7-yl)-2-cyano-3,4-dihydroxytetrahydrofuran-2-yl)methoxy)(4-(dimethylcarbamoyl)phenoxy)phosphoryl)-L-alaninate], the results for the half-maximal effective concentration (EC50) in the test on RSV strain A2 (setting [4]), in the test with RSV A2 (setting [2]) and with DENV2 replicon (setting [3]) were 55.3 µM, at least 5 µM and over 100 µM, respectively.
Consider `COC(=O)[C@H](C)NP(=S)(OC[C@@]1(C#N)O[C@@H](c2ccc3c(N)ncnn23)[C@H](O)[C@@H]1O)Oc1ccccc1` (stereo partly drawn) [Example 71, methyl ((((2R,3S,4R,5S)-5-(4-aminopyrrolo[2,1-f][1,2,4]triazin-7-yl)-2-cyano-3,4-dihydroxytetrahydrofuran-2-yl)methoxy)(phenoxy)phosphorothioyl)-L-alaninate], for which the EC50 in the test on RSV strain A2 (human respiratory syncytial virus, HEp-2, 96 h) was 3.14 µM; in the test with RSV A2 (human respiratory syncytial virus, NHBE, 96 h) it was over 5 µM.
